US7314959B2, “Amino thiol compounds and compositions for use in conjunction with cancer therapy” (Wisconsin Alumni Research Foundation, priority 2003, dated 2008)
Like-named read-outs stand apart in the source and are kept apart here.

Assays:
[1] = tested on: radiation-induced dermatitis on backs of rats; experiment: Radiation-induced dermatitis in rat skin model; format: in vivo; conditions: 20 mM epinephrine; vehicle 0:95:5; cage 480; 8.7 Gy
Experimental: To determine efficacy of chemoprotective polyamines in preventing radiation-induced dermatitis, adult rats were topically treated with the compounds before and after radiation treatment. Rats were exposed to medically relevant levels of radiation that could induce clinical radiation dermatitis. Sprague Dawley rats (Harlan Spraque Dawley) at 4-6 weeks-old were anesthetized with sodium pentobarbital at 40 mg/kg body weight (Sigma, St. Louis, Mo.) prior to radiation exposure. A defined area (1.5×2 cm) on the backs of rats was irradiated using a Mark I, Model 30, Cs 137 irradiator (J. L. Sheppard & Associates). Before topical drug treatment or irradiation, the backs of the rats were clipped using an Oster clipper at the closest setting. The rest of the body was protected from radiation exposure using a lead shield (2.5 cm thick). A dose response study was initially performed to reproduce relevant dermatitis that matched the Grade (I-IV) scale used to score the severity of radiation-induced dermatitis in humans. The severity of the dermatitis was scored 12-13 days post-irradiation at the peak of the dermal inflammation. […] Radiation dermatitis of Grade II-III was considered most clinically relevant, so a radiation dose of 8.7 Gy was typically used in the rats. The clipped back region on the rats was treated topically with aminothiol in delivery vehicle four times in the two hours immediately preceding irradiation (at −2 hr, −1 hr, −30 min, and −10 min; irradiation was at 0 min
The polyamines or amino thiols were prepared in a delivery vehicle, consisting of ethanol:propylene glycol:water, ranging from 0:95:5 to 50:30:20 depending upon the solubility characteristics of the topical molecule, and the degree of dermal penetration desired. A vehicle composed of an emulsion formed by sonication of ‘nonionic liposomes’ and isopropyl myristate was also used (Jayaraman, S. et al., J. Pharm. Sci. 85:1082-1084, 1996). In a commonly used protocol, 220 μl of topical drug/vehicle was applied to an area ˜2 cm×3 cm on the back in the 2 hr just prior to irradiation. Rats treated with only the delivery vehicle served as controls. Twelve to thirteen days post-radiation, the rats were evaluated for dermatitis within the irradiated area. In early studies, a modified scoring scale described by Masuda K. et al., Int. J. Radiation Oncol. Biol. Phys: 12, 1645 (1986) was used, and in later studies, including those described here, a simplified scoring system was used in which the percentage of the irradiated, rectangular field covered with scrab material was estimated between 0 and 100% to provide scores on a scale between 0 and 100.
This example relates to the use of a rat skin model to evaluate the efficacy of two amino thiol compounds in preventing radiation-induced dermatitis. To test whether topically-applied aminothiols could prevent the radiodermatitis caused by external beam radiotherapy, the rodent model described in Example 3 was slightly modified. Briefly, the radiodermatitis model involved: • i) shaving the backs of 6-7 week old rats or mice; • ii) applying four topical doses of aminothiol in a delivery vehicle composed of ethanol:propylene glycol (PG):water in the 2 hr prior to irradiation; • iii) irradiating a small, 3 cm^2 (1.5×2 cm) area on the animal's back (through a window in a lead plate) with 8.7 Gy of γ radiation from a Cs^137 source; and • iv) scoring the severity of the dermatitis 12-13 days later, at the peak of the inflammatory skin reaction. Radiodermatitis severity was scored by estimating the percentage of the irradiated field that was covered by scrab material.
Methods: Treatments were applied as described in Example 6.

[2] = tested on: radiation-induced alopecia in 11 day old rat pups; conditions: vehicle 50:25:25
Experimental: In some cases, topical vasoconstrictors may be used to reduce the severity of cancer therapy side-effects. […] Because cysteamine might have been toxic if distributed systemically at high concentrations in animals, a vasoconstrictor, in this case epinephrine (epinephrine-HCl, Sigma Chemical, 20 mM in topical 0:95:5 vehicle; ethanol:PG:water) was topically co-applied with cysteamine in an effort to prevent any potential uptake of the small aminothiol by skin vasculature. […] These initial experiments were done using a rat model where whole-body radiation is used to induce alopecia. This protocol is a variation of the Cytoxan-induced alopecia protocol described in Example 2. Here, 11 day old rat pups receive four topical treatments to their backs in the two hour period (at −2 hr, −1 hr, −30 min, −10 min) just prior to receiving whole-body irradiation (3.65 min) in a Cs137 irradiator. […] The topical vehicle varies from 0:95:5 (ethanol:PG:water) to 50:30:20, depending upon the solubility and concentration of the particular aminothiol. […] Following irradiation, the animals are housed with lactating mothers for 9 days and protection from radiation-induced alopecia within the topically-treated area is scored on day 20 of life. Protection is scored as the percentage of coat density seen in unirradiated rats.
Here, epinephrine-HCl (FW:220) was dissolved in an ethanol:propylene glycol:water delivery vehicle and was applied four times in the two hours just prior to irradiating the 11 day old rat pups. The animals were then housed with lactating mothers until day 20 of life when the degree of protection conferred by the topical epinephrine was scored.

[3] = tested on: primary, diploid fibroblasts isolated from human skin; experiment: Growth inhibition of primary diploid human skin fibroblasts; format: cell-based; conditions: 50% inhibition of human skin fibroblast growth
Experimental: The in vitro growth inhibitory effects of certain of the chemoprotective polyamines of the invention were measured using primary, diploid fibroblasts isolated from human skin.

DNA = DNA binding/precipitation from solution; conditions: Expt. 1; read-out: DNA Bind/ppt. IC50 (uM), Expt. 1
Description: The chemoprotective polyamines provided herein are also able to bind, denature and precipitate DNA from solution. As the skilled artisan will appreciate, as the concentration of polyamine is increased, there is a point where polyamine binding to helical B-DNA induces single-stranded ‘bubbles’ and conversion to other forms of DNA structure, such as Z-DNA (Feuerstein, B. et al., Nuc. Acids Res. 17:6883-6892, 1989; Basu, H. and Marton, L., Biochem. J. 244:243-246, 1987), as well as precipitating the DNA from solution.

[4] = tested on: p21 protein in 23SK human skin cells; experiment: p21 induction by western analysis; format: cell-based; conditions: 23SK cells, 30 hr exposure
Experimental: FIGS. 3A and 3B illustrate the level of induced p21 protein seen in diploid human fibroblasts after a 30 hr exposure to each of the indicated chemoprotective polyamines. […] In these experiments, the 23SK human skin cells were exposed for 30 hr to an “IC80” dose of each of the indicated chemoprotective polyamines and then lysed. Cell extracts were then prepared in order to measure p21 levels by western analysis (FIG. 3A).
FIG. 3 illustrates that chemoprotective polyamines are able to induce expression of the negative cell cycle regulatory protein, p21, after exposing the human skin cells to the polyamine molecules. […] In these experiments, the 23SK human skin cells were exposed for 30 hr to an “IC80” dose of each of the indicated chemoprotective polyamines and then lysed. Cell extracts were then prepared in order to measure p21 levels by western analysis (FIG. 3A). Although the ability of modified polyamines to induce p21 is known in the literature (Kramer, D. et al., Cancer Res. 59:1278-1286, 1999), it is a novel aspect of this invention that those chemoprotective polyamines with longer aliphatic “arms” were better able to induce expression of p21 as shown in FIG. 4.

23SK skin cells = experiment: Flow cytometry cell cycle distribution; format: cell-based, human; conditions: IC80 dose
Description: FIGS. 5A-5D are cell histograms showing the results from flow cytometry analysis of chemoprotective polyamine-treated 23SK skin cells.
In FIG. 5, cell histograms showing the results from flow cytometry analysis of chemoprotective polyamine-treated 23SK skin cells are shown. […] The transient nature of the cell cycle block induced by chemoprotective polyamines is believed to be an important aspect of their efficacy, i.e., their ability to block cell cycle progression in stem cells during the course of chemo- or radiotherapy, and the resumption of normal stem cell division after a given cancer therapy course has been completed.

[5] = tested on: Cytoxan-induced alopecia in rat pups; experiment: Cytoxan-induced alopecia in rat pups; format: in vivo
Experimental: Induction of alopecia by cytoxan (CTX). Lactating Sprague Dawley mother rats with rat pups were purchased from Harlan Sprague Dawley (Indianapolis, Ind.). The mother rats were given food and water ad libitum. The rats pups were tested in the model of chemotherapy-induced alopecia described by Hussein A. M. et al., Science: 249, 1564 (1990). Cytoxan (CTX), a chemotherapeutic widely used in the treatment of cancer, was used to induce alopecia in the rats. A common side effect of cytoxan treatment in patients is alopecia. Lyophilized vials of Cytoxan were obtained from Mead-Johnson. To produce CTX-induced alopecia, 11 day old rat pups, which are at the peak of coat growth, were injected i.p. with 30-35 μg of CTX/gm body weight. CTX was dissolved in water. By day 18 of life, the animals have shed virtually 100% of their coat leaving bare skin on their backs. Thus, topical application of protective drugs to the animal's back prior to the CTX insult provides a suitable test for prevention of chemotherapy-induced alopecia. A separate alopecia assay was also developed in which whole-body irradiation on day 11 of life was used as the insult. This assay is described in further detail in Example 12 which follows.
In the earliest studies with chemoprotective polyamines, the molecules were prepared in a topical delivery vehicle consisting of from 50-70% ethanol in water, depending on the solubility of the compound. The compounds in ethanol/water solution from 50-150 µl in volume were topically administered to the backs of the pups once per day before and after CTX challenge. Using a micropipette, the formulation was applied to an approximately 2 cm2 section of skin on the backs of the rat pups. Specifically, the pups were treated once daily for the 4-5 days before CTX challenge, once on the day of CTX challenge and once daily for 5 days afterwards. Control groups consisted of pups receiving only delivery vehicle. […]
In the earliest studies with chemoprotective polyamines, hair loss was evaluated using a modified alopecia-scoring index described by Chen G. et al., Int. […] In the later studies with aminothiols a simpler scoring scale was adopted in which coat density was scored on a 0-100 scale as “% of normal coat density.”
Method: To assess the ability of topical treatments to prevent Cytoxan-induced alopecia we used a published protocol (Hussein et al., Science. 249(4976):1564-6, 1990) in which 11 day old neonate rat pups (Sprague-Dawley) receive a total of 6 topical skin treatments of active agent(s) during the 5 hr before and 2 hr after a single ip dose of Cytoxan (32 ug/gm b.w.). […] The density of the rat coats in the topical treatment area was scored on day 18 of life for animals injected with Cytoxan.

CNC[C@H](O)c1ccc(O)c(O)c1 [epinephrine] was tested, and the “Dermatitis Score (% of irradiated field free of scab material)” value [1] was 20 ± 8%, the “Alopecia Score (% Normal Coat Density in Topical Treatment Area)” value ([2]; 20 mM epinephrine, 3.65 min γ irradiation (Cs137), Experiment 647-650) was 10% and the “Alopecia Score (% Normal Coat Density in Topical Treatment Area)” value ([2]; 100 mM epinephrine, 3.65 min γ irradiation) was 35 ± 19%. For the same molecule, the “Alopecia Score (% Normal Coat Density in Topical Treatment Area)” value ([2]; 500 mM epinephrine, 3.65 min γ irradiation) was 43 ± 17% and the “Alopecia Score (% Normal Coat Density in Topical Treatment Area)” value ([2]; 1000 mM epinephrine, 3.65 min γ irradiation) was 94 ± 6%.
Molecule CCNCCCCNCC=C(CNCC)CNCCCCNCC [PrC-110] has an IC50 ([3]; Expt. 1, read-out: IC50 (uM), Expt. 1) of 1680 µM, an IC50 ([3]; Expt. 2, read-out: IC50 (uM), Expt. 2) of 809 µM and an IC50 (DNA) of 270 µM. For the same molecule, the “p21 fold-induction at IC80 Dose” value [4] was 2.91 fold, the “Cell Cycle Distribution At IC80 Dose (%) G1” value (23SK skin cells; G1) was 60% and the “Cell Cycle Distribution At IC80 Dose (%) G2/M” value (23SK skin cells; G2/M) was 14%. For the same molecule, the “Cell Cycle Distribution At IC80 Dose (%) S” value (23SK skin cells; S) was 26% and the “protection against Cytoxan-induced alopecia” value ([5]; topical, alcohol:water vehicle, once per day five days before and five days after single systemic Cytoxan dose) was “excellent efficacy”.
For Oc1ccc(/C=C/c2cc(O)cc(O)c2)cc1 [Resveratrol, trihydroxy-trans-stilbene, reference compound], the “Alopecia Score (% Normal Coat Density in Topical Treatment Area)” value ([5]; Resveratrol 5 umol/day alone, ip Cytoxan 32 ug/gm b.w., Experiment 564-567) was 5%.
